Experimental data taken from US8802630B2, “Method of treating brain injury” (Buddhist Tzu Chi General Hospital, priority 2011, dated 2014).
Where no end group is shown, it is not given here.

Experiments:
[1] = tested on: collagenase-induced ICH rats; test: Assessment of hemorrhagic volume (spectrophotometric assay); format: in vivo
Protocol: Rats were randomly used in assessment of hemorrhagic volume at 24 hours (day 1) post-ICH. The accumulated hemorrhagic volume was quantified by a spectrophotometric assay as reported by Park et al., with minor modification (Park et al., 2005). Briefly, both contralateral and ipsilateral hemispheres were obtained after transcardial perfusion. PBS was added to the individual hemispheres to make-up a total of 3 ml volume for homogenization and centrifugation (15000 g, 30 minutes). The supernatant (40 μl) was reacted with Drabkin's reagent (160 μl, Sigma) for 15 minutes at room temperature. Optical density was measured at 540 nm with a spectrophotometer (Molecular Devices OptiMax, USA). Equivalent hemorrhage volume (μl) of the supernatant was calculated from a standard curve obtained with known amounts of the blood.

[2] = tested on: autologous blood infusion-induced ICH rats; test: modified Neurological Severity Score (mNSS), autologous blood infusion ICH model; format: in vivo
Protocol: (§1) The ICH refers to hemorrhage in the striatum, a part of the brain. Male Sprague-Dawley rats (250-300 g) anesthetized with chloral hydrate (0.4 g kg^−1 i.p., Sigma-Aldrich, St. Louis, Mo., USA). The blood infusion model of ICH was induced by intrastriatal (0.0 mm posterior, 3.0 mm right, 5.0 mm ventral to bregma skull surface) infusion of autologous blood (100 μl within 1 minute) and stereotaxic administration of bacterial collagenase VII-S into the striatum (MacLellan et al. 2008; Rosenberg et al. 1990). Briefly, bacterial collagenase VII-S (0.23 U in 1.0 μl sterile saline, Sigma-Aldrich) was infused into the striatum over a period of 10 minutes. The needle was kept in place for another 10 minutes to prevent backflow. The craniotomies were sealed with bone wax. The rats were allowed to recover in separate cages at room temperature.
(§2) Rats were used in the assessment of the neurological abnormalities with a modified Neurological Severity Score (mNSS) method (Chen et al. 2001) by an investigator blinded to the experimental treatment scheme. The mNSS is a composite test of motor, sensory, and balance functions. The assessment was performed before and on 1, 3 and 7 days after the ICH. Neurological functions were graded on a scale of 0-18 (normal score, 0; maximal deficit score, 18).

[3] = tested on: microglial cells; test: Immunohistochemistry of microglial activation (OX-42, ED-1); format: in vivo, rats; conditions: perihematomal region; L-UCN 2.5 μg/kg i.p.; day 3 post-ICH
Protocol: Rats were used in immunohistochemistry on day 3 post-ICH. Rats were anesthetized as described above and transcardially perfused with cold 0.1 M phosphate buffer saline followed by cold 4% paraformaldehyde in 0.1 M phosphate-buffered saline. Brains were removed and immersed in 4% paraformaldehyde for 24 hours and 30% sucrose for another 24 hours. Coronal brain sections (20 μm thickness) were cut and collected from 0.0 to −2.0 mm AP to bregma using a cryostat (Leica CM 1900). Three 20 μm coronal sections, representing the core of the hematoma, were taken starting at 0.0 mm from bregma (the needle entry site). Additional adjacent serial coronal sections taken through the center of the hemorrhagic lesion were processed for the counting of marker-specific cells (Jung et al., 2004). Antibodies of OX-42 (1:100; BD, USA), ED-1 (1:100; BD, USA) were used as microglial markers, and NeuN (1:200, Chemicon, USA) was used as neuron marker. Tissues sections were incubated with the primary antibodies overnight at 4° C. […] The numbers of positive cells in the same focal plane were counted in 6 regions of interest around the ipsilateral striatum (perihematomal region, 1 mm^2) All cell counting was done by an independent investigator counted the positive cells.

[4] = tested on: collagenase-induced ICH rats; test: Assessment of brain edema (brain water content, wet/dry method); format: in vivo; conditions: day 3 post-ICH
Description: Brain edema formation peaks on day 3 post-ICH (Xue et al., 2000; Yang et al., 1994). […] Rats were randomly used in the assessment of brain water content by using a common wet/dry method as previously described (Chu et al., 2004). Briefly, 3 days post-ICH, rats were anesthetized and decapitated. The brains were removed and separated into contralateral, ipsilateral hemispheres and cerebellum. The cerebellum was used as an internal control. Sample was weighed to obtain the wet weight immediately, and then dried in an oven at 100° C. for 24 hours to obtain the dry weight. The water content was expressed as a percentage of the wet weight: [(wet weight)−(dry weight)](wet weight)^−1×100%.

[5] = tested on: collagenase-induced ICH rats; test: modified Neurological Severity Score (mNSS), collagenase-induced ICH model; format: in vivo
Protocol: as §1, §2

[6] = tested on: IL-1β; test: Cytokine ELISA of ipsilateral striatal tissue; format: in vivo, rats; conditions: L-UCN 2.5 μg/kg i.p.; days 1, 3 and 7 post-ICH; vs ICH+Saline
Protocol: (§3) Rats were used for the cytokine assay by ELISA. The ipsilateral striatal tissues were collected before and on days 1, 3 and 7 days post-ICH. After homogenization in the lysis buffer (PRO-PREP™, iNtRON Biotechnology, Korea) and centrifuged at 12,000 g for 30 minutes, the supernatants were collected and stored frozen at −80° C. During quantification, the cytokines (TNFα, IL-1β and IL-6) were normalized to 100 μg of proteins in the supernatant using a commercial ELISA kit from R & D Systems (Minneapolis, Minn., USA) according to the manufacturer's instructions.

[7] = tested on: TNF-α; test: Cytokine ELISA of ipsilateral striatal tissue; format: in vivo, rats; conditions: L-UCN 2.5 μg/kg i.p.; days 1, 3 and 7 post-ICH; vs ICH+Saline
Protocol: as §3

[8] = tested on: IL-6; test: Cytokine ELISA of ipsilateral striatal tissue; format: in vivo, rats; conditions: L-UCN 2.5 μg/kg i.p.; day 1 post-ICH; vs ICH+Saline
Protocol: as §3

“urocortin (DNPSLSIDLTFHLLRTLLELARTQSQRERAEQNRIIFDSV; ends and bridges not checked; UniProt P55089 83-122, looked up) [UCN, a 40-amino-acid endogenous neuropeptide, belongs to the corticotrophin releasing hormone (CRH) family]” was tested, and the hemorrhagic volume ([1]; L-UCN 2.5 μg/kg i.p., day 1 post-ICH, vs ICH+Saline) was “not significantly different”, the accumulated hemorrhagic volume ([1]; UCN 5 μg i.c.v., 24 h post-ICH, vs ICH+saline) was “not significantly different” and the mNSS ([2]; UCN 2.5 μg/kg i.p. 60 min after blood infusion ICH, vs ICH+Saline) was “greater reduction in mNSS”. The mNSS ([2]; UCN 5 μg i.c.v. 1 h after blood infusion ICH, vs saline) was “greater reduction in mNSS”, the “number of ED-1+ cells” value [3] was 28.50±2.65 cells/6 mm^2 and the “number of OX-42+ microglial cells” value [3] was 82.00±22.86 cells/6 mm^2. The brain water content ([4]; cerebellum, L-UCN and H-UCN i.p., among groups) was “No significant differences”, the brain water content ([4]; cerebellum, UCN 5 μg i.c.v., among groups) was “essentially not affected” and the brain water content ([4]; contralateral hemisphere, H-UCN 25 μg/kg i.p.) was 79.40±0.15%. For the same substance, the brain water content ([4]; contralateral hemisphere, L-UCN 2.5 μg/kg i.p.) was 79.98±0.19%, the brain water content ([4]; contralateral hemisphere, UCN 5 μg i.c.v.) was 80.08±0.08% and the brain water content ([4]; ipsilateral hemisphere, H-UCN 25 μg/kg i.p.) was 79.94±0.66%. It also gave a brain water content ([4]; ipsilateral hemisphere, L-UCN 2.5 μg/kg i.p.) of 80.60±0.17%, a brain water content ([4]; ipsilateral hemisphere, UCN 5 μg i.c.v.) of 81.16±0.16% and a mNSS ([5]; H-UCN 25 μg/kg i.p. 60 min post-ICH, day 1, scale 0-18) of 6.55±0.26. It also gave a mNSS ([5]; H-UCN 25 μg/kg i.p. 60 min post-ICH, day 3, scale 0-18) of 4.68±0.29, a mNSS ([5]; H-UCN 25 μg/kg i.p. 60 min post-ICH, day 7, scale 0-18) of 2.00±0.26 and a mNSS ([5]; L-UCN 2.5 μg/kg i.p. 60 min post-ICH, day 1, scale 0-18) of 3.86±0.70. For the same substance, the mNSS ([5]; L-UCN 2.5 μg/kg i.p. 60 min post-ICH, day 3, scale 0-18) was 1.71±0.55, the mNSS ([5]; L-UCN 2.5 μg/kg i.p. 60 min post-ICH, day 7, scale 0-18) was 1.63±0.46 and the mNSS ([5]; UCN 0.05, 0.5 and 5 μg i.c.v. 1 h after collagenase ICH, over 7 days, most effective at 5 μg, vs ICH+Saline) was “dose-dependent reduction in the mNSS”. The “IL-1β level of ipsilateral striatum” value [6] was “significantly reduced”, the “TNF-α level of ipsilateral striatum” value [7] was “significantly reduced” and the “IL-6 level of ipsilateral striatum” value [8] was “reduced”.
